How the values were obtained:
cortisol levels = settings: Wyart et al. 2007; cited from earlier work
human subjects [1] = assay: Human olfactory psychophysics: intensity rating by OR7D4 genotype; format: in vivo; settings: for intensity rating, OR7D4 RT/WM vs RT/RT subjects: 7-point scale, two concentrations pooled, N=100 RT/WM, N=255 RT/RT; for intensity rating, RT/S84N subjects vs RT/RT controls: N=7 RT/S84N; for reduction in odor intensity, OR7D4 WM/WM subjects: N=10 WM/WM, compared with RT/WM; for intensity rating, RT/P79L subjects vs RT/RT controls: N=30 RT/P79L
Method: Human olfactory psychophysics. All human subjects gave informed consent to participate in this study and were tested in a well-ventilated room. Normal human subjects (n=412; 218 female, 194 male; median age 34, age range 19-75) were pre-screened to exclude pregnant women and those with medical conditions causing general impairment of the sense of smell. All subjects completed two replicates of the test separated by at least 4 days. Odors were presented in amber vials as previously described (see, e.g., Keller, A., et al., Nat Neurosci 7, 337-338 (2004); herein incorporated by reference in its entirety) using bar-coded symbols to ensure that subjects were blind to the identity of all odors. The intensity and valence of 66 odors at two concentrations (“high” and “low”) and two solvents was rated using a 7-point scale. Thresholds were calculated using the single staircase method with seven reversals (see, e.g., Doty, R. L., et al., Chem Senses 20, 645-656 (1995); Doty, R. L. & Laing, D. G. in Handbook of Olfaction and Gustation (ed. Doty, R. L.) pp. 203-228 (Marcel Dekker, Inc., New York, 2003); each of which are herein incorporated by reference in their entireties). Threshold tests included both steroids as binary dilutions from […] (binary dilution 6) to 1: 134,217,728 (binary dilution 27). Subjects who could not reliably distinguish a 1:64 dilution of androstenone and androstadienone from solvent were operationally defined as anosmic to these odorous steroids, although it could not be excluded that these subjects could detect higher concentrations of these steroids (see, e.g., Bremner, E. A., et al., Chem Senses 28, 423-432 (2003); herein incorporated by reference in its entirety). Odor profiling used the method established by Dravnieks, et al. (see, e.g., Dravnieks, A., et al., Science 218, 799-801 (1982); herein incorporated by reference in its entirety).
Stimuli for olfactory psychophysics. All odors were presented as one ml of an odor dilution in either propylene glycol or paraffin oil in 20 ml amber glass vials. All of these compounds were used in the intensity and valence rating portion of the smell test.
Olfactory ratings. The intensity and valence of 66 odors were rated at two different concentrations (high and low) and the intensity and valence of the two solvents (paraffin oil and propylene glycol) was rated three times. Prior to these ratings, six stimuli that represented the spectrum of intensity and valence of the stimuli used in the study were presented to allow the subjects to calibrate the usage of the scale. The subjects were unaware that the six first stimuli served that purpose. After the rating of the 66 odors at two concentrations and the rating of the solvents, 15 stimuli that were presented earlier in the experiment were repeated to test for the effect of adaptation and olfactory fatigue on the ratings. The subjects were not aware that the last 15 stimuli served this purpose. These 15 stimuli and the six first stimuli were not included in the analysis presented here. […] The 15 control stimuli and their concentrations were as follows:
In addition there was a button on the screen labeled “I can't smell anything” and a button labeled “Don't Know”. If the “Don't Know” button was pressed, no rating was recorded. If the “I can't smell anything” button was pressed, a 0 was recorded for the intensity rating and no rating was recorded for the valence rating. The other ratings were transformed according to the following scheme:
• Extremely Weak=1 • Very Weak=2 • Slightly Weak=3 • Neither Weak nor Strong=4 • Slightly Strong=5 • Very Strong=6 • Extremely Strong=7 Valence Rating • Extremely Unpleasant=1 • Very Unpleasant=2 • Slightly Unpleasant=3 • Neither Unpleasant nor Pleasant=4 • Slightly Pleasant=5 • Very Pleasant=6 • Extremely Pleasant=7
Averages for the ratings of the different genotypes were calculated. […]

human subjects [2] = assay: Human olfactory psychophysics: odor profiling with 146 descriptors; format: in vivo; settings: androstenone 1/10,000
Method: Human olfactory psychophysics. All human subjects gave informed consent to participate in this study and were tested in a well-ventilated room. Normal human subjects (n=412; 218 female, 194 male; median age 34, age range 19-75) were pre-screened to exclude pregnant women and those with medical conditions causing general impairment of the sense of smell. All subjects completed two replicates of the test separated by at least 4 days. Odors were presented in amber vials as previously described (see, e.g., Keller, A., et al., Nat Neurosci 7, 337-338 (2004); herein incorporated by reference in its entirety) using bar-coded symbols to ensure that subjects were blind to the identity of all odors. The intensity and valence of 66 odors at two concentrations (“high” and “low”) and two solvents was rated using a 7-point scale. Thresholds were calculated using the single staircase method with seven reversals (see, e.g., Doty, R. L., et al., Chem Senses 20, 645-656 (1995); Doty, R. L. & Laing, D. G. in Handbook of Olfaction and Gustation (ed. Doty, R. L.) pp. 203-228 (Marcel Dekker, Inc., New York, 2003); each of which are herein incorporated by reference in their entireties). Threshold tests included both steroids as binary dilutions from […] (binary dilution 6) to 1: 134,217,728 (binary dilution 27). […]
Assigning descriptors to odors. Subjects assessed the quality of six odors using an odor profiling method that has shown to produce stable profiles of odorants. […] Odor profiling typically took five minutes per odorant and was performed as a computer-controlled selftest in which the subject's responses were directly recorded. […] The descriptors used to describe the other four odors (vanillin, pentadecalactone, androstenone, and propylene glycol) were evaluated. […]

humans = settings: literature; cited from earlier work

Row | SMILES | cortisol levels in women smelling the odor vs women not smelling it (cortisol levels) | intensity rating, OR7D4 RT/WM vs RT/RT subjects (human subjects [1]) | intensity rating, RT/S84N subjects vs RT/RT controls (human subjects [1]) | reduction in odor intensity, OR7D4 WM/WM subjects (human subjects [1]) | intensity rating, RT/P79L subjects vs RT/RT controls (human subjects [1]) | use of descriptor "sickening", OR7D4 RT/WM vs RT/RT subjects (human subjects [2]) | use of descriptor "vanilla", OR7D4 RT/WM vs RT/RT subjects (human subjects [2]) | humans fitting the criteria of specific anosmia (humans) | humans with reduced sensitivity (humans)
1 | C[C@@]12C=CC[C@H]1[C@@H]1CCC3=CC(=O)CC[C@]3(C)[C@H]1CC2 [androstadienone, androsta-4,16-dien-3-one] | maintained at higher levels | less intense | more intense | more marked | less intense | – | – | – | –
2 | C[C@]12CCC(=O)C[C@@H]1CC[C@@H]1[C@@H]2CC[C@]2(C)C=CC[C@@H]12 [androstenone, 5α-androst-16-en-3-one] | – | less intense | more intense | more marked | less intense | less likely | more likely | 6% | Up to 30%
